{"source": "patent US6740759B1", "about": "“Method for producing 2-alkyl-4-isothiazoline-3-one” (Chemicrea, Inc., priority 1999, dated 2004)", "assay": "mutagenicity (Ames) testing of the crystals obtained", "format": "cell-based", "set-up": "key: A “+” signifies a positive adverse effect on the body; a “−” denotes no adverse effect", "details": "crystals obtained in the example", "method": "The numbers in the table enclosed by parentheses in the column of solvents used in the reaction denote the molar fraction of the solubility of hydrogen chloride at normal temperature/pressure. The purity of the crystals obtained in Working Examples 1 to 7 and in the Comparative Example was analyzed by high-performance liquid chromatography and submitted to mutagenicity (Ames) testing. A “+” signifies a positive adverse effect on the body while a “−” denotes no adverse effect.", "data": [{"smiles": "Cn1sccc1=O", "note": "[Working Example 3, 2-methyl-4-isothiazoline-3-one]", "values": [{"measurement": "Ames test", "value": "−"}]}, {"smiles": "CCCCCCCCn1sccc1=O", "note": "[Working Example 4, 2-n-octyl-4-isothiazoline-3-one]", "values": [{"measurement": "Ames test", "value": "−"}]}, {"smiles": "O=c1ccsn1Cc1ccccc1", "note": "[Working Example 7, 2-benzyl-4-isothiazoline-3-one]", "values": [{"measurement": "Ames test", "value": "−"}]}]}
